Counter-ions that a name gives are not always drawn. Like-named read-outs stand apart in the source and are kept apart here.
Assays:
[1] = test system: EVSA-T (human breast carcinoma); test: Anti-proliferative activity, Alamar Blue assay, EVSA-T; type: cell-based; settings: Homo sapiens, EVSA-T, 72 h, read-out: EVSA-T prolif (EC50)
[2] = molecular target: BIR3 domain of human cIAP-1 (residues 267-363) (Homo sapiens (Human), UniProt Q13490); test: cIAP-1 in vitro competitive displacement binding assay (fluorescence polarization; Probe A AVPIK(5&6FAM)-amide or Probe B AbuRPFK(5&6FAM)-amide)
[3] = molecular target: BIR3 domain of human XIAP (residues 252-350) (Homo sapiens (Human), UniProt P98170); test: XIAP in vitro competitive displacement binding assay (fluorescence polarization); settings: for IC50: read-out: IC50 or PI Xiap: IC50
[4] = Probe B AbuRPFK(5&6FAM)-amide, read-out: IC50 or PI cIAP1: IC50
[5] = read-out: IC50 or PI cIAP1: IC50

| Structure (SMILES) | IC50 [2, 4] [nM] | IC50 [3] [nM] | also measured |
| --- | --- | --- | --- |
| C[C@@H]1CN(CC(=O)N2CC(C)(C)c3ccc(Cc4ccccc4)cc32)[C@@H](CO)CN1 [Example 42, 1-(6-Benzyl-3,3-dimethyl-2,3-dihydro-indol-1-yl)-2-((2R,5R)-2-hydroxymethyl-5-methyl-piperazin-1-yl)-ethanone trifluoroacetate salt] |  |  | EC50 [1]: 2600 nM |
| COC[C@H]1CN[C@H](C)CN1CC(=O)N1CC(C)(C)c2ccc(Cl)cc21 [Example 44, 1-(6-Chloro-3,3-dimethyl-2,3-dihydro-indol-1-yl)-2-((2R,5R)-2-methoxymethyl-5-methyl-piperazin-1-yl)-ethanone hydrochloride salt] |  |  | EC50 [1]: 6600 nM |
| COC[C@H]1CN[C@H](C)CN1CC(=O)N1CC(C)(C)c2cnc(Cl)cc21 [Example 62, 1-(6-Chloro-3,3-dimethyl-2,3-dihydro-pyrrolo[3,2-c]pyridin-1-yl)-2-((2R,5R)-2-methoxy-methyl-5-methyl-piperazin-1-yl)-ethanone hydrochloride salt] |  |  | EC50 [1]: 3800 nM |
| COC[C@H]1CN[C@H](C)CN1CC(=O)N1CC(C)(C)c2cnc(CCC(C)C)cc21 [Example 75, 1-[3,3-Dimethyl-6-(3-methyl-butyl)-2,3-dihydro-pyrrolo[3,2-c]pyridin-1-yl]-2-((2R,5R)-2-methoxy-methyl-5-methyl-piperazin-1-yl)-ethanone] |  |  | EC50 [1]: 500 nM |
| CC[C@H]1CN[C@H](C)CN1CC(=O)N1CC(C)(C)c2cnc(Cn3cccn3)cc21 [Example 95, 1-[3,3-Dimethyl-6-(1H-pyrazol-1-ylmethyl)-1H,2H,3H-pyrrolo[3,2-c]pyridin-1-yl]-2-[(2S,5R)-2-ethyl-5-methylpiperazin-1-yl]ethan-1-one] | 680 | 3100 |  |
| COC[C@H]1CN[C@H](C)CN1CC(=O)N1CC(C)(C)c2cnc(N3CCCC3=O)cc21 [Example 102, 1-(1-{2-[(2R,5R)-2-(Methoxymethyl)-5-methylpiperazin-1-yl]acetyl}-3,3-dimethyl-1H,2H,3H-pyrrolo[3,2-c]pyridin-6-yl)pyrrolidin-2-one, hydrochloride salt] | 650 | 3200 | IC50 [2]: < 1000 nM |
| COC[C@H]1CN[C@H](C)CN1CC(=O)N1CC(C)(C)c2ccc(C#N)cc21 [Example 117, 1-{2-[(2R,5R)-2-(Methoxymethyl)-5-methylpiperazin-1-yl]acetyl}-3,3-dimethyl-2,3-dihydro-1H-indole-6-carbonitrile hydrochloride] | 710 | 790 |  |
| CCC1(C)CN(C(=O)CN2C[C@@H](C)NC[C@@H]2COC)c2cc(Cl)ccc21 (stereo partly drawn) [Example 123, 1-(6-Chloro-3-ethyl-3-methyl-2,3-dihydro-1H-indol-1-yl)-2-[(2R,5R)-2-(methoxymethyl)-5-methylpiperazin-1-yl]ethan-1-one hydrochloride] | 520 | 1300 |  |
| COC[C@H]1CN[C@H](C)CN1CC(=O)N1CC(C)(C)c2cnc(-c3cnn(C)c3)cc21 [Example 124, 1-[3,3-Dimethyl-6-(1-methyl-1H-pyrazol-4-yl)-1H,2H,3H-pyrrolo[3,2-c]pyridin-1-yl]-2-[(2R,5R)-2-(methoxymethyl)-5-methylpiperazin-1-yl]ethan-1-one dihydrochloride] |  | 4000 | IC50 [2, 5]: 550 nM |
| COC[C@H]1CN[C@H](C)CN1CC(=O)N1CC(C)(C)c2ccc(CN3CCCC3=O)cc21 [Example 125, 1-[(1-{2-[(2R,5R)-2-(Methoxymethyl)-5-methylpiperazin-1-yl]acetyl}-3,3-dimethyl-2,3-dihydro-1H-indol-6-yl)methyl]pyrrolidin-2-one hydrochloride] | 730 | 29000 |  |
| COC[C@H]1CN[C@H](C)CN1CC(=O)N1CC(C)(COC)c2ccc(Br)cc21 (stereo partly drawn) [Example 127, 1-[6-Bromo-3-(methoxymethyl)-3-methyl-2,3-dihydro-1H-indol-1-yl]-2-[(2R,5R)-2-(methoxymethyl)-5-methylpiperazin-1-yl]ethan-1-one hydrochloride] | 350 | 1200 |  |
| COC[C@H]1CN[C@H](C)CN1CC(=O)N1CC(C)(C(=O)OC)c2ccc(Br)cc21 (stereo partly drawn) [Example 129, Methyl 6-bromo-1-{2-[(2R,5R)-2-(methoxymethyl)-5-methylpiperazin-1-yl]acetyl}-3-methyl-2,3-dihydro-1H-indole-3-carboxylate hydrochloride] | 480 | 1300 |  |
| COC[C@H]1CN[C@H](C)CN1CC(=O)N1CC(C)(C)c2cnc(C(OC)c3ccccc3)cc21 (stereo partly drawn) [Example 132, 1-{6-[Methoxy(phenyl)methyl]-3,3-dimethyl-1H,2H,3H-pyrrolo[3,2-c]pyridin-1-yl}-2-[(2R,5R)-2-(methoxymethyl)-5-methylpiperazin-1-yl]ethan-1-one dihydrochloride] |  |  | EC50 [1]: 660 nM |
| COC[C@H]1CN[C@H](C)CN1CC(=O)N1CC(C)(C)c2cc(C)c(C#N)cc21 [Example 134, 1-{2-[(2R,5R)-2-(Methoxymethyl)-5-methylpiperazin-1-yl]acetyl}-3,3,5-trimethyl-2,3-dihydro-1H-indole-6-carbonitrile] | 590 | 780 |  |
| C[C@@H]1CN(CC(=O)N2CC(C)(C)c3ccc(Cl)cc32)[C@@H](Cn2cccn2)CN1 [Example 138, 1-(6-Chloro-3,3-dimethyl-2,3-dihydro-1H-indol-1-yl)-2-[(2R,5R)-5-methyl-2-(1H-pyrazol-1-ylmethyl)piperazin-1-yl]ethan-1-one hydrochloride] | 330 | 640 |  |
| C[C@@H]1CN(CC(=O)N2C[C@@](C)(c3ccccc3)c3ccc(C#N)cc32)[C@@H](Cn2cccn2)CN1 [Example 154, (3S)-3-Methyl-1-{2-[(2R,5R)-5-methyl-2-(1H-pyrazol-1-ylmethyl)piperazin-1-yl]acetyl}-3-phenyl-2,3-dihydro-1H-indole-6-carbonitrile] | 170 | 130 |  |
| C[C@@H]1CN(CC(=O)N2C[C@](C)(c3ccccc3)c3ccc(C#N)cc32)[C@@H](Cn2cccn2)CN1 [Example 155, (3R)-3-Methyl-1-{2-[(2R,5R)-5-methyl-2-(1H-pyrazol-1-ylmethyl)piperazin-1-yl]acetyl}-3-phenyl-2,3-dihydro-1H-indole-6-carbonitrile] | 260 | 72 |  |
| C[C@@H]1CN(CC(=O)N2CC(C)(C)c3ccc(C#N)cc32)CCN1 [Example 162, 3,3-Dimethyl-1-{2-[(3R)-3-methylpiperazin-1-yl]acetyl}-2,3-dihydro-1H-indole-6-carbonitrile] | 7900 | 5500 |  |
| COC[C@H]1CN[C@H](C)CN1CC(=O)N1C[C@](C)(COC)c2ccc(Br)cc21 [Example 168, 1-[(3R)-6-Bromo-3-(methoxymethyl)-3-methyl-2,3-dihydro-1H-indol-1-yl]-2-[(2R,5R)-2-(methoxymethyl)-5-methylpiperazin-1-yl]ethan-1-one hydrochloride] | 890 | 4000 |  |
| COC[C@H]1CN[C@H](C)CN1CC(=O)N1C[C@@](C)(COC)c2ccc(Br)cc21 [Example 169, 1-[(3S)-6-Bromo-3-(methoxymethyl)-3-methyl-2,3-dihydro-1H-indol-1-yl]-2-[(2R,5R)-2-(methoxymethyl)-5-methylpiperazin-1-yl]ethan-1-one hydrochloride] | 320 | 920 |  |
| COC[C@H]1CN[C@H](C)CN1CC(=O)N1CC(C)(C)c2cnc(C(C)(F)F)cc21 [Example 181, 1-[6-(1,1-Difluoroethyl)-3,3-dimethyl-1H,2H,3H-pyrrolo[3,2-c]pyridin-1-yl]-2-[(2R,5R)-2-(methoxymethyl)-5-methylpiperazin-1-yl]ethan-1-one dihydrochloride] |  | 330 | IC50 [2]: < 1000 nM; IC50 [2, 5]: 250 nM |
| COC[C@H]1CN[C@H](C)CN1CC(=O)N1CC(C)(C)c2nnc(Cl)cc21 [Example 183, 1-{3-Chloro-7,7-dimethyl-5H,6H,7H-pyrrolo[3,2-c]pyridazin-5-yl}-2-[(2R,5R)-2-(methoxymethyl)-5-methylpiperazin-1-yl]ethan-1-one hydrochloride] | 630 | 1700 | IC50 [2]: < 1000 nM |
| C[C@@H]1CN(CC(=O)N2CC(C)(C)c3ncc(C(=O)c4ccccc4)cc32)[C@@H](CN2CCCC2=O)CN1 [Example 187, 1-{[(2R,5R)-1-(2-{6-Benzoyl-3,3-dimethyl-1H,2H,3H-pyrrolo[3,2-b]pyridin-1-yl}-2-oxoethyl)-5-methylpiperazin-2-yl]methyl}pyrrolidin-2-one dihydrochloride] |  | 110 | IC50 [2, 5]: 32 nM |
| C[C@@H]1CN([C@@H](C)C(=O)N2CC(C)(C)c3ccc(C#N)cc32)CCN1 [Example 196, 3,3-Dimethyl-1-[(2S)-2-[(3R)-3-methylpiperazin-1-yl]propanoyl]-2,3-dihydro-1H-indole-6-carbonitrile hydrochloride] | 31000 | 5600 |  |
| C[C@@H]1CN(CC(=O)N2CC(C)(C)c3ncc(C(F)(F)c4ccccc4)cc32)[C@@H](CN2CCCC2=O)CN1 [Example 210, 1-{[(2R,5R)-1-(2-{6-[Difluoro(phenyl)methyl]-3,3-dimethyl-1H,2H,3H-pyrrolo[3,2-b]pyridin-1-yl}-2-oxoethyl)-5-methylpiperazin-2-yl]methyl}pyrrolidin-2-one hydrochloride] |  |  | EC50 [1]: 54 nM |
| COC[C@H]1CN[C@H](C)CN1CC(=O)N1CC(C)(C)c2ccc(-c3nnn[nH]3)cc21 [Example 258, 1-[3,3-Dimethyl-6-(1H-tetrazol-5-yl)-2,3-dihydro-indol-1-yl]-2-((2R,5R)-2-methoxymethyl-5-methyl-piperazin-1-yl)-ethanone hydrochloride] |  |  | inhibition at 30 µM ([2]; 3 h, Probe B, @ 30 μM, read-out: IC50 or PI cIAP1: PI): 37%; inhibition at 10 µM ([3]; 1 h, @ 10 μM, read-out: IC50 or PI Xiap: PI): 58% |
